Assay results reported in patent US10477864B2, “Microbiocidal quinoline (thio)carboxamide derivatives” (priority 2016, dated 2019).

Tests used:
[1] = test system: Botryotinia fuckeliana (Botrytis cinerea); assay: Botryotinia fuckeliana (Botrytis cinerea) / liquid culture (gray mould); assay type: cell-based; conditions: 72 h, read-out: control of Botryotinia fuckeliana
[2] = test system: Fusarium culmorum; assay: microbe, parasite or virus in culture; assay type: cell-based; conditions: read-out: control of Fusarium culmorum
[3] = test system: Glomerella lagenarium (Colletotrichum lagenarium); assay: Glomerella lagenarium (Colletotrichum lagenarium) / liquid culture (anthracnose); assay type: cell-based; conditions: Colletotrichum orbiculare; read-out: control of Glomerella lagenarium
[4] = test system: Fusarium culmorum; assay: whole plant or invertebrate; assay type: in vivo; conditions: in Triticum aestivum, read-out: control of Fusarium culmorum

Row | SMILES | melting point [°C] | inhibition of growth at 200 ppm [1] [%] | inhibition of growth at 200 ppm [2] [%] | inhibition of growth at 200 ppm [3] [%] | pest or weed control at 200 ppm [4] [%]
1 | CC(C)(Cc1ccccc1OC(F)(F)F)NC(=O)c1cnc2ccccc2c1 [Compound E-3, N-[1,1-dimethyl-2-[2-(trifluoromethoxy)phenyl]ethyl]quinoline-3-carboxamide] | 145 to 149 | ≥ 80 |  |  | 
2 | CC(C)CC(C)(Cc1ccccc1)NC(=O)c1cnc2cccc(O)c2c1 (stereo not shown) [Compound E-87, N-(1-benzyl-1,3-dimethyl-butyl)-5-hydroxy-quinoline-3-carboxamide] | 90 to 95 | ≥ 80 | ≥ 80 | ≥ 80 | 
3 | CC(Cc1ccccc1)(CC(F)(F)F)NC(=O)c1cnc2c(Cl)c(F)ccc2c1 (stereo not shown) [Compound E-93, N-(1-benzyl-3,3,3-trifluoro-1-methyl-propyl)-8-chloro-7-fluoro-quinoline-3-carboxamide] | 150 to 152 | ≥ 80 | ≥ 80 | ≥ 80 | ≥ 80
4 | CC(Cc1ccccc1)(CC(F)(F)F)NC(=O)c1cnc2cccc(Cl)c2c1 (stereo not shown) [Compound E-68, N-(1-benzyl-3,3,3-trifluoro-1-methyl-propyl)-5-chloro-quinoline-3-carboxamide] | 85 to 88 |  | ≥ 80 |  | 
5 | CC(Cc1ccccc1F)(CC(F)(F)F)NC(=O)c1cnc2c(F)cccc2c1 (stereo not shown) [Compound E-98, 8-fluoro-N-[3,3,3-trifluoro-1-[(2-fluorophenyl)methyl]-1-methyl-propyl]quinoline-3-carboxamide] | 131 to 133 | ≥ 80 | ≥ 80 | ≥ 80 | ≥ 80
6 | CC(Cc1ccccc1)(CC1CCC1)NC(=O)c1cnc2ccccc2c1 (stereo not shown) [Compound E-111, N-(1-benzyl-2-cyclobutyl-1-methyl-ethyl)quinoline-3-carboxamide] | 88 to 90 | ≥ 80 | ≥ 80 | ≥ 80 | 
7 | CC(C)CC(C)(Cc1ccccc1)NC(=O)c1cc2cccc(F)c2nc1Cl (stereo not shown) [Compound E-106, N-(1-benzyl-1,3-dimethyl-butyl)-2-chloro-8-fluoro-quinoline-3-carboxamide] | 106 to 108 | ≥ 80 | ≥ 80 | ≥ 80 | ≥ 80
8 | Cc1c(C(=O)NC(C)(Cc2ccccc2)CC(F)(F)F)cnc2c(Cl)cccc12 (stereo not shown) [Compound E-104, N-(1-benzyl-3,3,3-trifluoro-1-methyl-propyl)-8-chloro-4-methyl-quinoline-3-carboxamide] | 184 to 186 | ≥ 80 | ≥ 80 | ≥ 80 | ≥ 80
9 | CC(C#N)(Cc1ccccc1F)NC(=O)c1cnc2ccccc2c1 (stereo not shown) [Compound E-4, N-[1-cyano-2-(2-fluorophenyl)-1-methyl-ethyl]quinoline-3-carboxamide] | 134 to 139 |  | ≥ 80 |  | 
10 | Cc1nc2c(Cl)cccc2cc1C(=O)NC(C)(Cc1ccccc1)CC(F)(F)F (stereo not shown) [Compound E-110, N-(1-benzyl-3,3,3-trifluoro-1-methyl-propyl)-8-chloro-2-methyl-quinoline-3-carboxamide] | 176 to 179 | ≥ 80 | ≥ 80 |  | 
11 | Cc1nc2c(C#N)cccc2cc1C(=O)NC(C)(Cc1ccccc1)CC(F)(F)F (stereo not shown) [Compound E-113, N-(1-benzyl-3,3,3-trifluoro-1-methyl-propyl)-8-cyano-2-methyl-quinoline-3-carboxamide] | 136 to 140 | ≥ 80 | ≥ 80 | ≥ 80 | ≥ 80
12 | Cc1c(C(=O)NC(C)(Cc2ccccc2)CC(F)(F)F)cnc2c(C#N)cccc12 (stereo not shown) [Compound E-105, N-(1-benzyl-3,3,3-trifluoro-1-methyl-propyl)-8-cyano-4-methyl-quinoline-3-carboxamide] | 194 to 197 |  | ≥ 80 |  | ≥ 80
13 | CCC(Cc1ccccc1)(CC(F)(F)F)NC(=O)c1cnc2c(F)cccc2c1 (stereo not shown) [Compound E-101, N-(1-benzyl-1-ethyl-3,3,3-trifluoro-propyl)-8-fluoro-quinoline-3-carboxamide] | 127 to 129 | ≥ 80 | ≥ 80 | ≥ 80 | ≥ 80
14 | CC(C#N)(Cc1ccccc1Cl)NC(=O)c1cnc2c(F)cccc2c1 (stereo not shown) [Compound E-18, N-[2-(2-chlorophenyl)-1-cyano-1-methyl-ethyl]-8-fluoro-quinoline-3-carboxamide] | 198 to 203 | ≥ 80 | ≥ 80 |  | 
15 | COc1ccc2ncc(C(=O)NC(C)(Cc3ccccc3)CC(C)C)cc2c1 (stereo not shown) [Compound E-63, N-(1-benzyl-1,3-dimethyl-butyl)-6-methoxy-quinoline-3-carboxamide] | 102 to 105 | ≥ 80 |  |  | 
16 | Cc1cccc2ncc(C(=O)NC(C)(Cc3ccccc3)CC(C)C)cc12 (stereo not shown) [Compound E-85, N-(1-benzyl-1,3-dimethyl-butyl)-5-methyl-quinoline-3-carboxamide] | 79 to 81 | ≥ 80 | ≥ 80 |  | ≥ 80
17 | C=C(C)C[C@@](C)(Cc1ccccc1)NC(=O)c1cnc2c(F)c(F)ccc2c1 [Compound F-19, N-[(1S)-1-benzyl-1,3-dimethyl-but-3-enyl]-7,8-difluoro-quinoline-3-carboxamide] |  | ≥ 80 | ≥ 80 | ≥ 80 | ≥ 80
18 | Cc1nc2c(F)cccc2cc1C(=O)N[C@@](C)(Cc1ccccc1)CC(F)(F)F [Compound F-33, N-[(1S)-1-benzyl-3,3,3-trifluoro-1-methyl-propyl]-8-fluoro-2-methyl-quinoline-3-carboxamide] |  | ≥ 80 | ≥ 80 | ≥ 80 | ≥ 80
19 | CC(C)CC(C)(Cc1ccccc1)NC(=O)c1cnc2cccc(Cl)c2c1 (stereo not shown) [Compound E-64, N-(1-benzyl-1,3-dimethyl-butyl)-5-chloro-quinoline-3-carboxamide] | 50 to 60 | ≥ 80 | ≥ 80 |  | 
20 | CC(Cc1ccccc1)(CC(F)(F)F)NC(=S)c1cnc2c(F)cccc2c1 (stereo not shown) [Compound E-115, N-(1-benzyl-3,3,3-trifluoro-1-methyl-propyl)-8-fluoro-quinoline-3-carbothioamide] | 173 to 175 | ≥ 80 | ≥ 80 | ≥ 80 | 
21 | C[C@@](Cc1ccccc1)(CC(F)(F)F)NC(=O)c1cnc2c(Cl)cccc2c1 [Compound F-36, N-[(1R)-1-benzyl-3,3,3-trifluoro-1-methyl-propyl]-8-chloro-quinoline-3-carboxamide] |  | ≥ 80 | ≥ 80 | ≥ 80 | ≥ 80
22 | CC(C)CC(C)(Cc1ccccc1)NC(=O)c1cnc2cc(C#N)ccc2c1 (stereo not shown) [Compound E-67, N-(1-benzyl-1,3-dimethyl-butyl)-7-cyano-quinoline-3-carboxamide] | 170 to 172 | ≥ 80 | ≥ 80 |  | ≥ 80
23 | CC(C)CC(C)(Cc1ccccc1)NC(=O)c1cnc2c(C#N)cccc2c1 (stereo not shown) | 160 to 162 |  |  |  | 
24 | CC(Cc1ccccc1)(CC(F)(F)F)NC(=O)c1cnc2cc(C#N)ccc2c1 (stereo not shown) [Compound E-70, N-(1-benzyl-3,3,3-trifluoro-1-methyl-propyl)-7-cyano-quinoline-3-carboxamide] | 172 to 174 | ≥ 80 | ≥ 80 |  | ≥ 80
25 | C[C@@](Cc1ccccc1)(CC(F)(F)F)NC(=O)c1cnc2c(F)cccc2c1 [Compound F-12, N-[(1R)-1-benzyl-3,3,3-trifluoro-1-methyl-propyl]-8-fluoro-quinoline-3-carboxamide] |  | ≥ 80 | ≥ 80 | ≥ 80 | ≥ 80
26 | CC(C)CC(C)(Cc1ccccc1)NC(=O)c1cc2cccc(F)c2nc1F (stereo not shown) [Compound E-125, N-(1-benzyl-1,3-dimethyl-butyl)-2,8-difluoro-quinoline-3-carboxamide] |  | ≥ 80 | ≥ 80 | ≥ 80 | ≥ 80
27 | C[C@@](Cc1ccccc1)(CC(F)F)NC(=O)c1cnc2c(F)cccc2c1 [Compound F-31, N-[(1R)-1-benzyl-3,3-difluoro-1-methyl-propyl]-8-fluoro-quinoline-3-carboxamide] |  | ≥ 80 | ≥ 80 | ≥ 80 | ≥ 80
28 | Cc1c(C(=O)NC(C)(Cc2ccccc2)CC(C)C)cnc2c(Cl)cccc12 (stereo not shown) [Compound E-107, N-(1-benzyl-1,3-dimethyl-butyl)-8-chloro-4-methyl-quinoline-3-carboxamide] | 65 to 70 | ≥ 80 | ≥ 80 |  | ≥ 80
